Test results: patent EP0424538A1, “PYRIDINE DERIVATIVES AND THEIR SALTS, AND INSECTICIDAL/ACARICIDAL AGENT CONTAINING THE SAME AS ACTIVE INGREDIENT” (IDEMITSU KOSAN COMPANY LIMITED, priority 1989, dated 1990)

test system: larvae (3-periods old) of tobiirounka; experiment: rice stalk immersion test, life or death of larvae; format: in vivo; settings: 168 h; rice stalk immersed 1 minute in 500 ppm chemical solution; checked after 7 days at 25 °C; read-out: % dead larvae
Experimental: A stalk of rice cut in a length of 10 cm was immersed for 1 minutes in a chemical solution of one of the compounds obtained in the examples (excepting the compound of Example 4) in a concentration of 500 ppm and, after air-drying, put into a test tube containing water, in which larvae (3-periods old) of tobiirounka were released and kept standing in a thermostatic chamber at 25 °C with a cotton plug.
After 7 days of the testing, life or death of the above mentioned larvae was checked to find 100% dead larvae with each of the compounds obtained in the examples. Comparative Test Example.
In place of the compounds used in Test Example, the same test was undertaken by using: . [drawing 136]

| SMILES | mortality at 500 µg/mL [%] |
| --- | --- |
| Cc1cnccc1C(C)CCC1CCCCC1 (stereo not drawn) [CA 109, 6426j, 1988] | 98 |
| CC(C)(C)c1ccncc1C(C)(C)C [CA 100, 155997n, 1984] | 92 |
| C=CCC(CC=C)c1ccncc1C [CA 85, 32850y, 1976] | 90 |
| CCCCc1cnccc1CC | 92 |

test system: cabbage maggot (Hylemya brassicae); experiment: not given; settings: from Chemical Abstracts and Journal of Economic Entomology, 41, 98, 1948; cited from earlier work

| SMILES | activity against cabbage maggot |
| --- | --- |
| CCCCC(CCCC)c1ccncc1 [4-(5-nonyl) pyridine] | no activity was recognized |
| CCCCCc1ccncc1 [4-n-amyl pyridine] | no activity was recognized |
